Tested on: inflammatory bowel disease (IBD), symptom of diarrhoea
Experiment: clinical study in patients with inflammatory bowel disease (IBD): symptom of diarrhoea on subjective 5-point scale
Assay type: in vivo, adult patients
Settings: n = 6 IBD patients; for Diarrhoea % improvement relative to the base time / Diarrhoea mean intensity, final: after 4 weeks of daily oral treatment, 250 mg of each active; for Diarrhoea mean intensity, final / Diarrhoea mean intensity, base: scale 0 to 4; for Diarrhoea mean intensity, base: base time before treatment
Description: The clinical study described below was performed with the tablets thus produced.
The study was performed on 18 adult patients of both sexes, divided into three homogeneous groups each of 6 patients, who were suffering from inflammatory bowel disease (IBD) and were treated as follows:
Group 1: 250 mg butyric acid
Group 3: 250 mg butyric acid+250 mg inulin
The active ingredients were transported in tablets which were indistinguishable in shape, size, weight and colour.
The treatments were administered orally daily before the main meal for a period of 4 weeks.
Before the start of the treatment (base time) and then upon completion of the 4 weeks of treatment, each patient was assessed for the presence of the symptom of diarrhoea.
This symptom was quantified, according to its intensity, on a subjective 5-point scale graduated from 0 (absence of indisposition) to 4 (indisposition of considerable gravity). The mean intensity at the base time and at the end of the period of treatment and the percentage of improvement relative to the base time were calculated for this symptom.

Row | Compound | Diarrhoea % improvement relative to the base time | Diarrhoea mean intensity, final | Diarrhoea mean intensity, base
1 | inulin | 27% | 2.1 | 2.9
2 | CCCC(=O)O [butyric acid] | 44% | 1.5 | 2.7

From patent US20150010639A1, “PHAR[…] DIETARY COMPOSITIONS BASED ON SHORT-CHAIN FATTY ACIDS AND COMPLEX SUGARS, FOR INTESTINAL DISORDERS” (COSMO TECHNOLOGIES LTD., priority 2004, published 2015)
